Measured values taken from patent US9505761B2, “Bicyclic compounds and their use as antibacterial agents and beta-lactamase inhibitors” (FEDORA PHARMACEUTICALS INC., priority 2011, dated 2016).

Columns and labels:
Assay in all cases: β-lactamase inhibitory activity, spectrophotometric, nitrocefin
Assay type in all cases: biochemical
CMY-2 = CMY-2 (Klebsiella pneumoniae, UniProt Q48434)
Description: (§1) The inhibitory activities of present compounds against various enzymes were measured by spectrophotometric assay using […] and using nitrocefin as a substrate (J. Antimicrob. Chemother., 28, pp 775-776 (1991)). The concentration of inhibitor (IC50) which inhibits by 50% the reaction of hydrolysis of nitrocefin by the enzyme is determined.

CTX-M-9 = CTX-M-9 (Escherichia coli, UniProt Q9L5C8)
Description: as §1

KPC-2 = KPC-2 (Klebsiella pneumoniae, UniProt Q9F663)
Description: as §1

TEM-1 = TEM-1 (Escherichia coli, UniProt P62593); settings: nitrocefin substrate, 490 nM as printed
Description: as §1

## O=C(NO[C@H]1CCNC1)[C@@H]1CC[C@@H]2CN1C(=O)N2OS(=O)(=O)O [Ex. 2, (2S,5R)-7-oxo-N-[(3S)-pyrrolidin-3-yloxy]-6-(sulfooxy)-1,6-diazabicyclo[3.2.1]octane-2-carboxamide]
CMY-2
  IC50: 32 ± 3 nM
CTX-M-9
  IC50: 127 ± 9 nM
KPC-2
  IC50: 73 ± 7 nM
TEM-1
  IC50: 136 ± 12 nM
